Assays:
HeTA [1] = target: T1, HeTA (Halomonas elongata, UniProt E1V913); test: differential scanning fluorimetry (SYPRO Orange), T1/[…] vs PLP, 1-site fit; format: binding
T1 construct: gene spuC; IMAC-purified recombinant from E. coli BL21 (DE3) Star; dimer
T1 sequence (E1V913 1-461): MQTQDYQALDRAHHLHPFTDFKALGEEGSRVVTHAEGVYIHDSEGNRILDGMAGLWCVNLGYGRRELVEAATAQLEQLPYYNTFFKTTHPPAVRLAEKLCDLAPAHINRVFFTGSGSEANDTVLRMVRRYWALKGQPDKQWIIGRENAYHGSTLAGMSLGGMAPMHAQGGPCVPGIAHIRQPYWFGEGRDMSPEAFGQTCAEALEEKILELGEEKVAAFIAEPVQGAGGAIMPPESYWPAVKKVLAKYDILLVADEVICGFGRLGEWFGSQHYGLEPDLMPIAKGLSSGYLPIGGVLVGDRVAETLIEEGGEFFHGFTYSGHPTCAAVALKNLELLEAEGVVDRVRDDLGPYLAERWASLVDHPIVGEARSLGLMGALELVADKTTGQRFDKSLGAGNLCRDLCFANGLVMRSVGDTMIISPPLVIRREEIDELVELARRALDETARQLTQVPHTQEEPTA

[2] = target: PfTA (Pseudomonas fluorescens); test: as above; format: binding; details: apo form, 1 mg/mL protein, PLP 1–250 μM, 50 mM phosphate pH 8; cofactor forms internal aldimine (covalent)
CvTA [3] = target: T2, CvTA (Chromobacterium violaceum, UniProt Q7NWG4); test: as above; format: binding
T2 construct: gene CV_2025; IMAC-purified recombinant from E. coli BL21 (DE3) Star; dimer
T2 sequence (Q7NWG4 1-459): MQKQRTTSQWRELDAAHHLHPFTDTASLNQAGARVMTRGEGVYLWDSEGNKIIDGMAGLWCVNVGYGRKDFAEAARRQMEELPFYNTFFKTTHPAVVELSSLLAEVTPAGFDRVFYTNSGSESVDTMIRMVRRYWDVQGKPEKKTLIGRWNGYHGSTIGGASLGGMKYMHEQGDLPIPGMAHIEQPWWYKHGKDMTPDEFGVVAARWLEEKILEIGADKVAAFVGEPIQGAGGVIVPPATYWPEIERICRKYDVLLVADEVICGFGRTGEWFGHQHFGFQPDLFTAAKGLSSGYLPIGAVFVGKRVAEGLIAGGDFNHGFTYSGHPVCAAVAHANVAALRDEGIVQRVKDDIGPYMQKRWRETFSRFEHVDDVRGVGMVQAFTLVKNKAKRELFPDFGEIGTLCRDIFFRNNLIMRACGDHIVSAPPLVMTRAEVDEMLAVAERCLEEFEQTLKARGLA

HeTA [4] = target: T3, HeTA (Halomonas elongata, UniProt E1V913, N120V); test: as above; format: binding
T3 construct: gene spuC; IMAC-purified recombinant from E. coli BL21 (DE3) Star; dimer

CvTA [5] = target: T4, CvTA (Chromobacterium violaceum, UniProt Q7NWG4, V124N); test: biochemical
T4 construct: gene CV_2025

[6] = target: Pseudomonas fluorescens ω-transaminase (Pseudomonas fluorescens); test: crystal structure; PfTA crystallised with PLP; sitting drop vapor diffusion at 20°C; 6 mg/mL protein in 50 mM HEPES pH 7.5, 300 mM NaCl, 0.1 mM PLP, 1% glycerol, 20 mM DTT mixed 1:1 with 0.1 M sodium citrate pH 5.6, 12% w/v PEG 6000, 0.1 M lithium sulfate; 2.2 Å; interfaces analysed with the PISA server

T3 sequence (E1V913 entry or part of it N120V): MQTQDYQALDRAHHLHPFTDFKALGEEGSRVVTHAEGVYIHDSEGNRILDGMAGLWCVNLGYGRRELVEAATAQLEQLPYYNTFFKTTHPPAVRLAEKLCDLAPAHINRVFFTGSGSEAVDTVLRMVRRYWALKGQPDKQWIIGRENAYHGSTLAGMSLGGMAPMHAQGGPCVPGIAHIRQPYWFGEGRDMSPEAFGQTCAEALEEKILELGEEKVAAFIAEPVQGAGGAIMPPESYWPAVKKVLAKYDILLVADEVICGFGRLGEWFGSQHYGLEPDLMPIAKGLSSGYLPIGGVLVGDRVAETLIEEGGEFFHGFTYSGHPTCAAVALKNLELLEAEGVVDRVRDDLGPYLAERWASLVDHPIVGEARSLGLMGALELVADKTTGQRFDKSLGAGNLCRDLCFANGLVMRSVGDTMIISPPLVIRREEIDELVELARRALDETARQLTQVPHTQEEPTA

stoichiometry N [6]	Compound	Kd (HeTA [1]) [µM]	Kd [2] [µM]	Kd (CvTA [3]) [µM]	Kd (HeTA [4]) [µM]	Kd (CvTA [5]) [µM]
–	Cc1ncc(COP(=O)(O)O)c(C=O)c1O [PLP]	12.4 ± 3.6	14.8 ± 2.5	59 ± 15.8	30.3 ± 4.1	16.4 ± 5.6
4	Pseudomonas fluorescens ω-transaminase (enzyme)	–	–	–	–	–
